In patent US10626089B2, “Quinoline derivative in crystal form” (GB001, Inc., priority 2016, dated 2020):
Where a name gives a salt, the structure may show the parent alone.

Legend:
[1] = Storage stability: total related substances by liquid chromatography before and after storage; type: physicochemical; conditions: for total amount of related substances (produced impurities), at the start: before storage; for total amount of related substances (produced impurities), at the start / total amount of related substances (produced impurities), after 3 months: liquid chromatography, related substances measured to ≥0.03%; for total amount of related substances (produced impurities), after 3 months: tightly sealed glass vessel, relative humidity 75° C.
Protocol: The storage stability of the compound (I) crystal form A obtained in example 1 was compared with that of the free-form crystals obtained in comparative example 1.
The respective crystals were introduced into a glass vessel which was then tightly sealed and stored at 40° C., relative humidity […] for 3 months; the amount of related substances before and after storage was measured by liquid chromatography; the results are shown in Table 1. The values are the total amount of related substances, which are produced impurities, as measured to ≥0.03%.

[2] = Retention of water of crystallization on heated drying under reduced pressure; type: physicochemical; conditions: 80° C.
Text: Inventive crystal form B of compound (I) is a hydrate crystal form, and can be obtained using a combination of solvents that includes water. Alcohols such as ethanol and 2-propanol are preferred as the solvent used in combination with water. For example, the crystal form can be obtained by dissolving compound (I) in a mixed solvent containing ethanol and water at a ratio of 1:1 (80×volume), concentrating and then drying. The drying can comprise natural drying, drying under reduced pressure, heated drying, or heated drying under reduced pressure.

total amount of related substances (produced impurities), at the start [1] [%] | total amount of related substances (produced impurities), after 3 months ([1]; 40° C.) [%] | melting point [°C] | Compound | loss of water of crystallization [2] | storage stability compared with the free-form crystals ([1]; 40° C., relative humidity 75, 3 months)
1.37 | 1.95 | – | CCc1nc2c(Cl)ccc(OCC(=O)O)c2c(OC(F)F)c1Cc1ccc(Cl)cc1 [Free-form crystals, [8-chloro-3-(4-chlorobenzyl)-4-difluoromethoxy-2-ethylquinolin-5-yloxy]acetic Acid, reference compound] | – | –
– | – | 141 | CCc1nc2c(Cl)ccc(OCC(=O)O)c2c(OC(F)F)c1Cc1ccc(Cl)cc1 (as salt: salt) [Free-form crystals, [8-chloro-3-(4-chlorobenzyl)-4-difluoromethoxy-2-ethylquinolin-5-yloxy]acetic Acid] | – | –
– | – | – | CCc1nc2c(Cl)ccc(OCC(=O)O)c2c(OC(F)F)c1Cc1ccc(Cl)cc1.NCCCC[C@H](N)C(=O)O [crystal form B of compound (I), [8-chloro-3-(4-chlorobenzyl)-4-difluoro-methoxy-2-ethylquinolin-5-yloxy]acetic Acid L-Lysine Salt in Crystal Form B] | no water of crystallization is lost even at 80 °C | –
0.53 | 0.59 | – | CCc1nc2c(Cl)ccc(OCC(=O)O)c2c(OC(F)F)c1Cc1ccc(Cl)cc1.NCCCC[C@H](N)C(=O)O [Compound (I) crystal form A, [8-chloro-3-(4-chlorobenzyl)-4-difluoro-methoxy-2-ethylquinolin-5-yloxy]acetic Acid L-Lysine Salt in Crystal Form A] | – | better storage stability than the free-form crystals
